From PubChem BioAssay AID248 (DTP/NCI, 2004)
“And” between values parts separate entries of the source, which are not always exact repeats. Identical values can stand only once. Toxic doses and inconclusive results are not listed. Cut-off read from the data, not from the text of the source: active = T/C of 150% or more; inactive = T/C below 125%.

System: L1210 leukemia ip in BDF1 mice, survival T/C
Assay: NCI In Vivo Anticancer Drug Screen. Data for tumor model L1210 Leukemia (intraperitoneal) in B6D2F1 (BDF1) mice
Conditions: endpoint: mean survival time, higher = longer survival
How it was run: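 Mice bearing the transplanted tumor received compound or vehicle. Survival of the treated group was divided by that of the vehicle-treated control group to give the ratio.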

[1] = dose: 100.0 mg/kg/injection, schedule: Q01DX001 (ip), vehicle: Klucel (hydroxypropylcellulose) (HPC)
[2] = dose: 200.0 mg/kg/injection, schedule: Q01DX001 (ip), vehicle: Klucel (hydroxypropylcellulose) (HPC)
[3] = dose: 400.0 mg/kg/injection, schedule: Q01DX001 (ip), vehicle: Klucel (hydroxypropylcellulose) (HPC)
[4] = dose: 12.5 mg/kg/injection, schedule: Q01DX009 (ip), vehicle: Klucel (hydroxypropylcellulose) (HPC)
[5] = dose: 25.0 mg/kg/injection, schedule: Q01DX009 (ip), vehicle: Klucel (hydroxypropylcellulose) (HPC)
[6] = dose: 50.0 mg/kg/injection, schedule: Q01DX009 (ip), vehicle: Klucel (hydroxypropylcellulose) (HPC)
[7] = dose: 100.0 mg/kg/injection, schedule: Q01DX009 (ip), vehicle: Klucel (hydroxypropylcellulose) (HPC)
[8] = dose: 100.0 mg/kg/injection, schedule: Q04DX003 (ip), vehicle: Klucel (hydroxypropylcellulose) (HPC)
[9] = dose: 200.0 mg/kg/injection, schedule: Q01DX009 (ip), vehicle: Klucel (hydroxypropylcellulose) (HPC)
[10] = dose: 200.0 mg/kg/injection, schedule: Q04DX003 (ip), vehicle: Klucel (hydroxypropylcellulose) (HPC)
[11] = dose: 400.0 mg/kg/injection, schedule: Q01DX009 (ip), vehicle: Klucel (hydroxypropylcellulose) (HPC)
[12] = dose: 400.0 mg/kg/injection, schedule: Q04DX003 (ip), vehicle: Klucel (hydroxypropylcellulose) (HPC)
[13] = dose: 100.0 mg/kg/injection, schedule: Q04DX003 (ip), vehicle: saline with Tween-80
[14] = dose: 200.0 mg/kg/injection, schedule: Q04DX003 (ip), vehicle: saline with Tween-80
[15] = dose: 100.0 mg/kg/injection, schedule: Q04DX003 (ip), vehicle: saline
[16] = dose: 200.0 mg/kg/injection, schedule: Q04DX003 (ip), vehicle: saline
[17] = dose: 400.0 mg/kg/injection, schedule: Q04DX003 (ip), vehicle: saline

Measured: T/C

O=C(O)/C(=C\c1cccc(Br)c1)c1ccccc1
inactive: dose: 75.0 mg/kg/injection, schedule: Q04DX003 (ip), vehicle: Klucel (hydroxypropylcellulose) (HPC) 104 % of control | [1] 105 % of control | dose: 150.0 mg/kg/injection, schedule: Q04DX003 (ip), vehicle: Klucel (hydroxypropylcellulose) (HPC) 96 % of control | [2] 97 % of control | dose: 300.0 mg/kg/injection, schedule: Q04DX003 (ip), vehicle: Klucel (hydroxypropylcellulose) (HPC) 105 % of control | [3] 97 % of control

CN1C(=O)CN=C(c2ccccc2)c2cc(Cl)ccc21
inactive: [4] 97 % of control | [5] 95 % of control | dose: 25.0 mg/kg/injection, schedule: Q04DX003 (ip), vehicle: Klucel (hydroxypropylcellulose) (HPC) 93 % of control | [6] 100 % of control | dose: 50.0 mg/kg/injection, schedule: Q04DX003 (ip), vehicle: Klucel (hydroxypropylcellulose) (HPC) 93 % of control | [7] 100 % of control and 103 % of control | [8] 110 % of control and 93 % of control | [9] 100 % of control and 97 % of control | [10] 102 % of control and 110 % of control | [11] 100 % of control | [12] 88 % of control

O=P1(Cc2ccccc2)C(c2ccccc2)=C(O)CC1c1ccccc1 (centres undefined)
inactive: [8] 101 % of control | [10] 99 % of control | [12] 89 % of control

O=C1CCc2ccccc2/C1=C\c1ccccc1
inactive: [13] 98 % of control | [14] 97 % of control | dose: 400.0 mg/kg/injection, schedule: Q04DX003 (ip), vehicle: saline with Tween-80 92 % of control

COc1cc(OC)cc(C(O)C(C)NC(C)C)c1 (centres undefined)
inactive: dose: 6.25 mg/kg/injection, schedule: Q01DX009 (ip), vehicle: Klucel (hydroxypropylcellulose) (HPC) 95 % of control | [4] 92 % of control | dose: 12.5 mg/kg/injection, schedule: Q04DX003 (ip), vehicle: saline 108 % of control | [5] 92 % of control | dose: 25.0 mg/kg/injection, schedule: Q04DX003 (ip), vehicle: saline 97 % of control | [6] 95 % of control | dose: 50.0 mg/kg/injection, schedule: Q04DX003 (ip), vehicle: saline 105 % of control | [7] 101 % of control | [15] 103 % of control

CC(C)(S)C(N)C(N)=O (centres undefined)
inactive: dose: 100.0 mg/kg/injection, schedule: Q04DX002 (ip), vehicle: Klucel (hydroxypropylcellulose) (HPC) 103 % of control | dose: 200.0 mg/kg/injection, schedule: Q04DX002 (ip), vehicle: Klucel (hydroxypropylcellulose) (HPC) 97 % of control | dose: 400.0 mg/kg/injection, schedule: Q04DX002 (ip), vehicle: Klucel (hydroxypropylcellulose) (HPC) 97 % of control

Cc1ccc(-c2nn3c(-c4ccccc4)nnc3o2)cc1
inactive: dose: 100.0 mg/kg/injection, schedule: Q01DX009 (ip), vehicle: saline with Tween-80 97 % of control | dose: 200.0 mg/kg/injection, schedule: Q01DX009 (ip), vehicle: saline with Tween-80 94 % of control | dose: 400.0 mg/kg/injection, schedule: Q01DX009 (ip), vehicle: saline with Tween-80 102 % of control

CC(=O)C(=Cc1ccccc1)C(C)=O
inactive: [6] 97 % of control | [7] 87 % of control and 90 % of control | [8] 92 % of control | [15] 106 % of control | [9] 95 % of control | [10] 97 % of control | [16] 116 % of control | [11] 91 % of control | [12] 97 % of control | [17] 106 % of control

FC(F)(F)c1nc(S)cc(=S)[nH]1
inactive: dose: 50.0 mg/kg/injection, schedule: Q01DX Z (ip), vehicle: methylcellulose (MC) 96 % of control | dose: 100.0 mg/kg/injection, schedule: Q01DX Z (ip), vehicle: methylcellulose (MC) 93 % of control

CN(C)C(=S)SCC(N)=O
inactive: [1] 103 % of control | [2] 100 % of control | [3] 103 % of control

CC1(C)N=C(N)N=C(N)N1c1cccc(Cc2ccccc2)c1
inactive: dose: 25.0 mg/kg/injection, schedule: Q01DX001 (ip), vehicle: saline with Tween-80 92 % of control | dose: 50.0 mg/kg/injection, schedule: Q01DX001 (ip), vehicle: saline with Tween-80 106 % of control

O=C(c1ccccc1)C(Oc1ccccc1)c1ccccc1 (centres undefined)
inactive: dose: 100.0 mg/kg/injection, schedule: Q04DX002 (ip), vehicle: other 111 % of control | dose: 200.0 mg/kg/injection, schedule: Q04DX002 (ip), vehicle: other 107 % of control | dose: 400.0 mg/kg/injection, schedule: Q04DX002 (ip), vehicle: other 100 % of control

Nc1ccc(F)cc1[N+](=O)[O-]
inactive: [6] 106 % of control | [7] 93 % of control | [8] 105 % of control | [9] 95 % of control | [10] 94 % of control | [11] 90 % of control | [12] 91 % of control

Cc1ccc(I)c([N+](=O)[O-])c1
inactive: dose: 50.0 mg/kg/injection, schedule: Q01DX001 (ip), vehicle: carboxymethylcellulose (CMC) 96 % of control | dose: 100.0 mg/kg/injection, schedule: Q01DX001 (ip), vehicle: carboxymethylcellulose (CMC) 89 % of control | dose: 200.0 mg/kg/injection, schedule: Q01DX001 (ip), vehicle: carboxymethylcellulose (CMC) 91 % of control | dose: 400.0 mg/kg/injection, schedule: Q01DX001 (ip), vehicle: carboxymethylcellulose (CMC) 100 % of control

O=C(O)C(Cc1ccc(O)cc1)c1ccccc1 (centres undefined)
inactive: [15] 98 % of control | [16] 94 % of control | [17] 96 % of control

CS(=O)(=O)Nc1ccc(Nc2c3ccccc3nc3cc(N)ccc23)cc1
inactive: dose: 1.25 mg/kg/injection, schedule: Q01DX009 (ip), vehicle: saline 100 % of control | dose: 4.0 mg/kg/injection, schedule: Q01DX009 (sc), vehicle: saline 123 % of control | dose: 5.0 mg/kg/injection, schedule: Q01DX009 (ip), vehicle: saline 88 % of control | dose: 20.0 mg/kg/injection, schedule: Q01DX001 (ip), vehicle: saline 92 % of control | dose: 40.0 mg/kg/injection, schedule: Q01DX001 (ip), vehicle: saline 89 % of control
active: dose: 0.4 mg/kg/injection, schedule: Q01DX009 (ip), vehicle: saline 152 % of control

CC(O)C(O)C1OC(=O)C1O (centres undefined)
inactive: dose: 100.0 mg/kg/injection, schedule: Q01DX009 (ip), vehicle: saline 94 % of control and 98 % of control | dose: 200.0 mg/kg/injection, schedule: Q01DX009 (ip), vehicle: saline 100 % of control and 113 % of control | dose: 400.0 mg/kg/injection, schedule: Q01DX009 (ip), vehicle: saline 104 % of control and 94 % of control

Nc1nc(N)nc(N)n1 (tested in a mixture with another compound)
inactive: [13] 89 % of control | [14] 89 % of control

COC1C(NC(=O)N(CCCl)N=O)C(OC(C)=O)OC(COC(C)=O)C1OC(C)=O (centres undefined)
inactive: dose: 1.8 mg/kg/injection, schedule: Q01DX001 (ip), vehicle: saline with Tween-80 118 % of control | dose: 30.0 mg/kg/injection, schedule: Q01DX001 (ip), vehicle: saline with Tween-80 86 % of control
active: dose: 2.6 mg/kg/injection, schedule: Q01DX001 (ip), vehicle: saline with Tween-80 181 % of control | dose: 4.0 mg/kg/injection, schedule: Q01DX001 (ip), vehicle: saline with Tween-80 154 % of control | dose: 6.0 mg/kg/injection, schedule: Q01DX001 (ip), vehicle: saline with Tween-80 259 % of control [middle of 4 runs] | dose: 9.0 mg/kg/injection, schedule: Q01DX001 (ip), vehicle: saline with Tween-80 283 % of control and 162 % of control | dose: 13.0 mg/kg/injection, schedule: Q01DX001 (ip), vehicle: saline with Tween-80 333 % of control and 232 % of control | dose: 20.0 mg/kg/injection, schedule: Q01DX001 (ip), vehicle: saline with Tween-80 155 % of control and 154 % of control

COc1ccc(Cc2ccc3c(C)cc(Cl)nc3c2)cc1
inactive: dose: 100.0 mg/kg/injection, schedule: Q01DX001 (ip), vehicle: saline 98 % of control | dose: 200.0 mg/kg/injection, schedule: Q01DX001 (ip), vehicle: saline 103 % of control | dose: 400.0 mg/kg/injection, schedule: Q01DX001 (ip), vehicle: saline 108 % of control
